# Reference: article PMC4102551, “Screening and Characterisation of Antimicrobial Properties of Semisynthetic Betulin Derivatives” (PLoS ONE, 2014)
# Where “and” joins values, the source holds several entries; their conditions need not be identical. Equal entries are not always repeated.
# Columns and labels:
# P. aeruginosa ATCC 27853 = experiment: Broth microdilution assay, P. aeruginosa; type: cell-based, Pseudomonas aeruginosa; details: 50 µM, 24 h, inhibition of growth, mean ± SD
# Experimental: (§1) Clinically used antimicrobial agents were selected based on international guidelines for antimicrobial testing and were utilised as reference compounds in the antimicrobial assays. The compounds were purchased from Sigma, Fluka and ICN Biomedicals. Stock solutions of the reference compounds were prepared either in double distilled sterile MilliQ water or in DMSO. Water solutions were sterilised through a 0.22 µm filter (VWR International). […] During the primary screening, these reference compounds were used as positive controls at the determined MIC on every plate.
# (§2) Gram-negative strains Escherichia coli (ATCC 25922), Enterobacter aerogenes (ATCC 13048) and Pseudomonas aeruginosa (ATCC 27853), Gram-positive strains Staphylococcus aureus (ATCC 25923) and Enterococcus faecalis (ATCC 29212), and fungal strain Candida albicans (ATCC 90028) were obtained from Microbiologics Inc., and used for the antimicrobial screening. Strains were selected according to the guidelines set for clinical laboratories by Clinical and Laboratory Standards Institute [CLSI, formerly National Committee on Clinical Laboratory Standards [22]] and the European Committee on Antimicrobial Susceptibility Testing (EUCAST). Bacterial strains were grown on Mueller Hinton II Agar (MHA) (BBL, BD) and Mueller Hinton II broth (MHB) (BBL, BD), whereas Candida was initiated on Sabouraud Dextrose Agar (SDA) (Difco, BD) plates. Media were prepared into MilliQ water according to manufacturer’s instruction and autoclaved at 121°C for 15 min. Bacteria were plated on MHA plates and incubated at 37°C for 16–18 h. Bacterial suspension for the assays was prepared by subculturing the bacteria into MHB and by incubating at 37°C for 16–20 h at 110 rpm prior to the assay. Candida strain was grown on SDA plates at 27°C for 16–18 h and suspended into sterile 0.9% saline for the assay.
# (§3) Antimicrobial screening assays were performed by broth microdilution method following the guidelines of CLSI and EUCAST. Bacterial suspensions were prepared as mentioned earlier and diluted with MHB to obtain a final inoculum of 5×10^5 colony-forming units (cfu)/mL in the assay for all the bacteria (based on OD620 values previously calibrated against plate counts). Candida suspension was prepared into sterile 0.9% saline solution as stated earlier. […] Assays were carried out in clear 96-well microtitre plates and initiated by dispensing an equal volume of microbial suspension and sample solution diluted into the assay medium into the wells. The plates were incubated for 24 h at 37°C (for Candida the incubation was at 35°C for 48 h) with agitation. Absorbance was measured at 620 nm with Victor plate reader (Wallac 1420, Perkin Elmer) at 0, 4 and 24 h with the bacteria, and at 0, 24 and 48 h with Candida. The antimicrobial activity of the samples was calculated from the absorbance values by comparing to the controls, and expressed as a percentage inhibition of growth. All the betulin derivatives were first assayed at the single concentration of 50 µM (two separate experiments, each with three replicates). […] The MIC90 value was expressed as the lowest concentration of compound that inhibited the microbial growth by >90%. The MIC90 results are means of three replicates from two separate experiments.
# E. coli ATCC 25922 = experiment: Broth microdilution assay, E. coli; type: cell-based, Escherichia coli; details: 50 µM, 24 h, inhibition of growth, mean ± SD
# Experimental: as §1, §2, §3
# E. faecalis ATCC 29212 = experiment: Broth microdilution assay, E. faecalis; type: cell-based, Enterococcus faecalis; details: 50 µM, 24 h, inhibition of growth, mean ± SD
# Experimental: as §1, §2, §3
# Huh-7 cells = experiment: in vitro; type: cell-based, human; details: 50 µM, 24 h exposure, ATP content, 5% FBS
# Experimental: Huh-7 cells (derived from human hepatocellular carcinoma) were obtained as a gift from Prof. Ralf Bartenschlager (University of Heidelberg, Germany) and used for assessing the cytotoxicity against mammalian cells. HL cells (a heteroploid cell line used for propagating respiratory viruses) were used as a host cell line in the host-pathogen co-culture assay. […] Both cell lines were cultured at 37°C, 5% CO2 and 95% humidity.
# The effect of the betulin derivatives on metabolic activity of Huh-7 cells was evaluated by measuring the intracellular ATP content of the cells after 24 h exposure to the compounds. In brief, cells were seeded at 20000 cells/well on white-walled microplates (PerkinElmer) and incubated at 37°C, 5% CO2 and 95% humidity. After culturing the cells overnight, the medium was replaced with the assay media (5% FBS) containing the sample and the cells were incubated for 24 h. Polymyxin B sulphate (15000 IU/mL) was used as a positive control. Following the incubation period, Promega’s CellTiter-Glo Cell Viability Assay was used to determine the intracellular ATP levels according to the manufacturer’s instructions. Cells were washed with 100 µL 6.7 mM PBS, pH 7.4 and 50 µL of fresh assay media and 50 µL of the CellTiter-Glo reagent were added into the wells. After 2 min shaking, followed by 10 min incubation at RT, luminometric signal was measured using Varioskan Flash plate reader (Thermo Fisher Scientific).
# S. aureus ATCC 25923 = experiment: Broth microdilution assay, S. aureus; type: cell-based, Staphylococcus aureus; details: 50 µM, 24 h, inhibition of growth, mean ± SD
# Experimental: as §1, §2, §3
# E. aerogenes ATCC 13048 = experiment: Broth microdilution assay, E. aerogenes; type: cell-based, Enterobacter aerogenes; details: 50 µM, 24 h, inhibition of growth, mean ± SD
# Experimental: as §1, §2, §3
# C. albicans ATCC 90028 = experiment: Broth microdilution assay, C. albicans; type: cell-based, Candida albicans; details: 50 µM, 48 h at 35°C, inhibition of growth, mean ± SD
# Experimental: as §1, §2, §3
Structure (SMILES),Inhibitory effect (%) P. aeruginosa ATCC 27853 (P. aeruginosa ATCC 27853) [%],Inhibitory effect (%) E. coli ATCC 25922 (E. coli ATCC 25922) [%],Inhibitory effect (%) E. faecalis ATCC 29212 (E. faecalis ATCC 29212),Cytotoxicity (%) Huh-7 cells (Huh-7 cells) [%],Inhibitory effect (%) S. aureus ATCC 25923 (S. aureus ATCC 25923) [%],Inhibitory effect (%) E. aerogenes ATCC 13048 (E. aerogenes ATCC 13048),Inhibitory effect (%) C. albicans ATCC 90028 (C. albicans ATCC 90028) [%]
CCCCn1c(=O)n2n(c1=O)C1(C(C)C)CCC3(COC(C)=O)CCC4(C)C(=C31)C2CC1C2(C)CCC(OC(C)=O)C(C)(C)C2CCC14C (centres unmarked) [Compound 42],1.0±0.4,1.7±5.2,67.5±3.7%,-8.3±1.3,1.5±1.0,10.6±3.5%,-12.0±11.8
CCCC(=O)OCC12CCC3(C(C)C)C1=C1C(CC4C5(C)CCC(OC(=O)CCC)C(C)(C)C5CCC4(C)C1(C)CC2)n1c(=O)n(C)c(=O)n13 (centres unmarked) [Compound 46],5.2±0.7,-2.1±6.4,44.8±2.8%,6.4±2.9,2.5±3.1,7.4±5.9%,-56.1±14.6
C=C(C)C1CCC2(COS(C)(=O)=O)CCC3(C)C(CCC4C5(C)CCC(OC(C)=O)C(C)(C)C5CCC43C)C12 (centres unmarked) [Compound 13],6.5±0.9,-0.4±3.4,61.2±1.5%,0.2±3.8,-16.5±3.0,15.0±1.9%,-14.8±8.5
CC(=O)OCC12CCC3(C(C)C)C1=C1C(CC4C5(C)CCC(OC(C)=O)C(C)(C)C5CCC4(C)C1(C)CC2)n1c(=O)n(-c2ccccc2)c(=O)n13 (centres unmarked) [Compound 41],1.3±0.4,7.1±1.0,52.4±7.2%,1.3±4.4,12.7±1.6,18.6±5.6%,15.0±14.3
CC(=O)OCC12CCC3(C(C)C)C1=C1C(CC4C5(C)CCC(OC(C)=O)C(C)(C)C5CCC4(C)C1(C)CC2)n1c(=O)n(Cc2ccccc2)c(=O)n13 (centres unmarked) [Compound 40],1.7±0.6,-0.8±2.3,66.0±1.5%,2.3±2.2,4.1±1.1,15.1±3.4%,4.4±10.5
"C=C(C)[C@@H]1CC[C@]2(COC(=O)c3cccnc3)CC[C@]3(C)[C@H](CC[C@@H]4[C@@]5(C)CC[C@H](O)C(C)(C)[C@@H]5CC[C@]43C)[C@@H]12 [Compound 6, 28-O-nicotinoylbetulin]",2.2±2.2,-0.6±6.8,60.1±4.0%,-0.4±3.4,-17.7±2.0,7.5±1.3%,36.7±7.6
CC(C)C12CCC3(COC(=O)C4CCCCC4)CCC4(C)C(=C31)C(CC1C3(C)CCC(OC(=O)C5CCCCC5)C(C)(C)C3CCC14C)n1c(=O)n(C(C)(C)C)c(=O)n12 (centres unmarked) [Compound 51],5.9±0.3,-3.2±1.0,62.3±0.3%,-10.0±2.6,7.5±3.8,10.8±2.5%,-96.4±22.3
"C=C(C)[C@@H]1CC[C@]2(C(=O)OC)CC[C@]3(C)[C@H](CC[C@@H]4[C@@]5(C)CC[C@H](O)C(C)(C)[C@@H]5CC[C@]43C)[C@@H]12 [Compound 20, betulinic acid methyl ester]",8.6±2.5,13.5±8.9,51% and 51.1±0.6%,33.7±7.0,5.3±4.2,39% and 38.9±1.5%,34.3±5.6
CCC(=O)OCC12CCC3(C(C)C)C1=C1C(CC4C5(C)CCC(OC(=O)CC)C(C)(C)C5CCC4(C)C1(C)CC2)n1c(=O)n(C)c(=O)n13 (centres unmarked) [Compound 45],3.7±1.2,-4.3±7.0,41.6±2.8%,11.1±5.1,0.7±3.8,10.8±6.9%,-30.7±19.4
C=C(C)[C@@H]1CC[C@]2(C#N)CC[C@]3(C)[C@H](CC[C@@H]4[C@@]5(C)CC[C@H](OC(C)=O)C(C)(C)[C@@H]5CC[C@]43C)[C@@H]12 [Compound 33],3.6±3.9,-4.6±3.3,49% and 49.2±2.2%,21.6±17.0,20.5±52.1,11.4±4.2%,-51.2±39.1
C=C(C)[C@@H]1CC[C@]2(C#N)CC[C@]3(C)[C@H](CC[C@@H]4[C@@]5(C)CCC(=NOC(C)=O)C(C)(C)[C@@H]5CC[C@]43C)[C@@H]12 [Compound 32],5.7±1.7,5.5±1.5,57% and 56.6±7.0%,-7.2±3.0,5.5±1.9,12.0±3.0%,-43.8±12.6
